{"source": "patent US20250096297A1", "about": "“NOVEL AQUEOUS-PHASE REDOX FLOW BATTERIES” (KEMIWATT, priority 2022, published 2025)", "key": {"[1]": {"conditions": "conjugate acid of the base, cited from earlier work"}, "[2]": {"experiment": "Solubility in water of formula (I) compounds in the presence of different bases (Example 2)", "conditions": "for relative solubility, 1,1,3,3-Tetramethyl guanidine: 1.2 mol/L 1,1,3,3-Tetramethyl guanidine; for relative solubility, (NH3)aq: 1.2 mol/L (NH3)aq; for relative solubility, CsOH: 1.2 mol/L CsOH; for relative solubility, KOH: 1.2 mol/L KOH; for relative solubility, LiOH: 1.2 mol/L LiOH; for relative solubility, N-Ethyl pyrrolidine: 1.2 mol/L N-Ethyl pyrrolidine; for relative solubility, NEt3: 1.2 mol/L NEt3; for relative solubility, NMe4OH: 1.2 mol/L NMe4OH; for relative solubility, PBu4OH: 1.2 mol/L PBu4OH; for relative solubility, RbOH: 1.2 mol/L RbOH; for solubility: aqueous NaOH solution, aqueous buffer"}, "[3]": {"conditions": "formed cation, cited from earlier work; for Volume: derived from the literature"}, "[4]": {"experiment": "Chemical compatibility of bases with the posolyte: SOC of ferricyanide solution by linear voltammetry", "format": "physicochemical", "conditions": "0.5 mol/L ferricyanide, 0.1 mol/L compound, pH about 13, 7 days in sealed flask"}, "physchem [5]": {"experiment": "physchem", "conditions": "aqueous buffer"}, "physchem [6]": {"experiment": "physchem", "conditions": "aqueous buffer", "remark": "listed apart in the source"}, "[7]": {"conditions": "footnote a (Hall, J. Amer. Chem. Soc 1957)"}, "[8]": {"conditions": "literature (Charlot) or predicted by COSMO-RS"}, "[9]": {"conditions": "relative to solubility in 1 mol/L NaOH"}, "[10]": {"conditions": "footnote b, hexa-coordinate cation within a crystal (Shannon 1976)"}}, "note": "Where two headings read alike, the source gives them in different places.", "data": [{"smiles": "CCN(C)CC", "note": "[Methyl, diethyl amine, diethylmethylamine]", "values": [{"measurement": "pKa", "setting": "[1]; [7]", "value": "10.3^a"}]}, {"smiles": "C1CCC2=NCCCN2CC1", "note": "[DBU, 1,8-diazabicyclo[5.4.0]undec-7-ene]", "values": [{"measurement": "pKa", "setting": "[1]; [8]", "value": 13.5}]}, {"smiles": "CN1CCCC1", "note": "[N-Methyl pyrrolidine, N-methylpyrrolidine]", "values": [{"measurement": "pKa", "setting": "[1]; [7]", "value": "10.5^a"}]}, {"smiles": "O=C(O)c1ccc2c(c1)C(=O)c1ccccc1C2=O", "values": [{"measurement": "relative solubility, 1,1,3,3-Tetramethyl guanidine", "setting": "[2]; [9]", "value": "×4100"}, {"measurement": "relative solubility, (NH3)aq", "setting": "[2]; [9]", "value": "×50"}, {"measurement": "relative solubility, CsOH", "setting": "[2]; [9]", "value": "×70"}, {"measurement": "relative solubility, KOH", "setting": "[2]; [9]", "value": "×10"}, {"measurement": "relative solubility, LiOH", "setting": "[2]; [9]", "value": "×14"}, {"measurement": "relative solubility, N-Ethyl pyrrolidine", "setting": "[2]; [9]", "value": "×2000"}, {"measurement": "relative solubility, NEt3", "setting": "[2]; [9]", "value": "×2000"}, {"measurement": "relative solubility, NMe3", "setting": "[2]; 1.2 mol/L NMe3, relative to solubility in 1 mol/L NaOH", "value": "×2000"}, {"measurement": "relative solubility, NMe4OH", "setting": "[2]; [9]", "value": "×3700"}, {"measurement": "relative solubility, PBu4OH", "setting": "[2]; [9]", "value": "×4100"}, {"measurement": "relative solubility, RbOH", "setting": "[2]; [9]", "value": "×150"}, {"measurement": "solubility", "setting": "[2]", "value": 0.25, "unit": "mM"}]}, {"smiles": "CCCCCCCCCCCCCCCC[N+](C)(C)C", "note": "[Trimethyl, cetyl ammonium, trimethyl cetylammonium hydroxide]", "values": [{"measurement": "pKa", "setting": "[1]; [8]", "value": 14}]}, {"smiles": "N", "note": "[Ammonia]", "values": [{"measurement": "Volume", "setting": "[3]", "value": 13.6, "unit": "Å^3"}, {"measurement": "Radius", "setting": "[3]; footnote c (Sidey 2016)", "value": "1.48^c Å"}]}, {"smiles": "[Li+].[OH-]", "note": "[Lithium hydroxide]", "values": [{"measurement": "Volume", "setting": "[3]", "value": 1.8, "unit": "Å^3"}, {"measurement": "Radius", "setting": "[3]; [10]", "value": "0.76^b Å"}]}, {"smiles": "[Na+].[OH-]", "note": "[Sodium hydroxide]", "values": [{"measurement": "Volume", "setting": "[3]", "value": 4.4, "unit": "Å^3"}, {"measurement": "Radius", "setting": "[3]; [10]", "value": "1.02^b Å"}]}, {"smiles": "O=C(O)[C@@H]1CCCN1", "note": "[proline]", "values": [{"measurement": "SOC after a contact time of 7 days with ferricyanide", "setting": "[4]", "value": 77.7, "unit": "%"}]}, {"smiles": "[Cs+].[OH-]", "note": "[Caesium hydroxide]", "values": [{"measurement": "Volume", "setting": "[3]", "value": 19.5, "unit": "Å^3"}, {"measurement": "Radius", "setting": "[3]; [10]", "value": "1.67^b Å"}]}, {"smiles": "O=C1c2ccccc2C(=O)c2c(O)ccc(O)c21", "note": "[drawing 31, quinizarin]", "values": [{"measurement": "relative solubility, 1,1,3,3-Tetramethyl guanidine", "setting": "[2]; [9]", "value": "×82"}, {"measurement": "relative solubility, (NH3)aq", "setting": "[2]; [9]", "value": "×3"}, {"measurement": "relative solubility, CsOH", "setting": "[2]; [9]", "value": "×32"}, {"measurement": "relative solubility, DBU", "setting": "[2]; 1.2 mol/L DBU, relative to solubility in 1 mol/L NaOH", "value": "×234"}, {"measurement": "relative solubility, KOH", "setting": "[2]; [9]", "value": "×8"}, {"measurement": "relative solubility, LiOH", "setting": "[2]; [9]", "value": "×0.03"}, {"measurement": "relative solubility, N-Ethyl pyrrolidine", "setting": "[2]; [9]", "value": "×13"}, {"measurement": "relative solubility, N-Methyl pyrrolidine", "setting": "[2]; 1.2 mol/L N-Methyl pyrrolidine, relative to solubility in 1 mol/L NaOH", "value": "×7"}, {"measurement": "relative solubility, NEt3", "setting": "[2]; [9]", "value": "×3"}, {"measurement": "relative solubility, NMe4OH", "setting": "[2]; [9]", "value": "×213"}, {"measurement": "relative solubility, PBu4OH", "setting": "[2]; [9]", "value": "×211"}, {"measurement": "relative solubility, RbOH", "setting": "[2]; [9]", "value": "×16"}, {"measurement": "relative solubility, Trimethyl, benzyl ammonium", "setting": "[2]; 1.2 mol/L Trimethyl, benzyl ammonium, relative to solubility in 1 mol/L NaOH", "value": "×255"}, {"measurement": "solubility", "setting": "[2]", "value": 3.8, "unit": "mM"}]}, {"smiles": "C[N+](C)(C)C", "note": "[Tetramethyl ammonium, tetramethylammonium hydroxide]", "values": [{"measurement": "pKa", "setting": "[1]; [8]", "value": 14}]}, {"smiles": "CCN(C)C", "note": "[Dimethyl, ethyl amine, ethyldimethylamine]", "values": [{"measurement": "pKa", "setting": "[1]; [7]", "value": "10.0^a"}]}, {"smiles": "[K+].[OH-]", "note": "[Potassium hydroxide]", "values": [{"measurement": "Volume", "setting": "[3]", "value": 11.0, "unit": "Å^3"}, {"measurement": "Radius", "setting": "[3]; [10]", "value": "1.38^b Å"}]}, {"smiles": "CCN1CCCC1", "note": "[N-Ethyl pyrrolidine, N-ethylpyrrolidine]", "values": [{"measurement": "pKa", "setting": "[1]; [8]", "value": 10.7}]}, {"smiles": "CCCCCCCCCCCC[N+](C)(C)CCCCCCCCCCCC", "note": "[Didodecyl, dimethyl ammonium, didodecyldimethylammonium hydroxide]", "values": [{"measurement": "pKa", "setting": "[1]; [8]", "value": 14}]}, {"smiles": "CN(C)C(=N)N(C)C", "note": "[1,1,3,3-Tetramethyl guanidine, 1,1,3,3-tetramethylguanidine]", "values": [{"measurement": "pKa", "setting": "[1]; [8]", "value": 13.0}]}, {"smiles": "C[n+]1ccccc1.[OH-]", "note": "[N-Methyl pyridinium, N-methylpyridinium hydroxide]", "values": [{"measurement": "pKa", "setting": "[1]; [8]", "value": 14}]}, {"smiles": "CCN1CCCCC1", "note": "[N-Ethyl piperidine, N-ethylpiperidine]", "values": [{"measurement": "pKa", "setting": "[1]; [7]", "value": "10.4^a"}]}, {"smiles": "O=C1c2ccccc2C(=O)c2c(O)ccc(O)c21", "note": "[quinizarin]", "values": [{"measurement": "solubility", "setting": "physchem [5]", "value": 31, "unit": "mM"}]}, {"smiles": "[OH-].[Rb+]", "note": "[Rubidium hydroxide]", "values": [{"measurement": "Volume", "setting": "[3]", "value": 14.7, "unit": "Å^3"}, {"measurement": "Radius", "setting": "[3]; [10]", "value": "1.52^b Å"}]}, {"smiles": "C[N+]1(C)CCCCC1.[OH-]", "note": "[N,N-Dimethyl piperidinium, N,N-dimethylpiperidinium hydroxide]", "values": [{"measurement": "pKa", "setting": "[1]; [8]", "value": 14}]}, {"smiles": "C[N+](C)(C)Cc1ccccc1.[OH-]", "note": "[Tetramethyl, benzyl ammonium, trimethyl benzylammonium hydroxide]", "values": [{"measurement": "pKa", "setting": "[1]; [8]", "value": 14}]}, {"smiles": "C[N+]1(C)CCCC1.[OH-]", "note": "[N,N-Dimethyl pyrrolidinium, N,N-dimethylpyrrolidinium hydroxide]", "values": [{"measurement": "pKa", "setting": "[1]; [8]", "value": 14}]}, {"smiles": "C[N+](C)(C)CCO.[OH-]", "note": "[CholineOH, choline hydroxide]", "values": [{"measurement": "SOC after a contact time of 7 days with ferricyanide", "setting": "[4]", "value": 82.7, "unit": "%"}]}, {"smiles": "O=C1c2ccccc2C(=O)c2c1ccc(O)c2O", "note": "[alizarin]", "values": [{"measurement": "solubility", "setting": "physchem [6]", "value": 23, "unit": "mM"}]}]}
